Where “and” joins values, the source holds several entries; their conditions need not be identical. Equal values may be shown once. Entries after “also recorded” stand apart in the source; their conditions may differ. Read-outs that look alike come from different tables or passages of the source.
What was measured:
MST2 = biological target: T1, MST2 (Homo sapiens, UniProt Q13188); experiment: MST assay, binding to MST2
T1 construct: made in house; host or cells: E. coli BL21 Codon plus (DE3)
T1 sequence (Q13188 1-491): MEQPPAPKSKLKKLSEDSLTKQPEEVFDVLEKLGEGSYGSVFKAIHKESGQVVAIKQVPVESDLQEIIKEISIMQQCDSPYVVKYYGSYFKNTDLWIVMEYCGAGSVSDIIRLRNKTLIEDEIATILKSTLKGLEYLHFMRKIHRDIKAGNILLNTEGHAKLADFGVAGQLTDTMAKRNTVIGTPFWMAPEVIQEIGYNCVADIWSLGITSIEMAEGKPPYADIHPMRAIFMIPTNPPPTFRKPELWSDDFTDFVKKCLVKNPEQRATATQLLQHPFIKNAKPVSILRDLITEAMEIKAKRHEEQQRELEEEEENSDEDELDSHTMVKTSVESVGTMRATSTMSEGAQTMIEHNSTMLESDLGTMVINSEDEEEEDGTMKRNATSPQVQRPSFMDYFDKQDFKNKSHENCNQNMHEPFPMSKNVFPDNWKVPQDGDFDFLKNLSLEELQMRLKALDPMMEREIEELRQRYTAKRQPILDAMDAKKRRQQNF

MKN-28 cells = experiment: Killing efficiency in MKN-28 cells; format: cell-based, human
[1] = tested on: YAP target gene CTGF in HGC-27 cells; experiment: CTGF mRNA (qPCR) in HGC-27 cells; details: 48 h
HGC-27 cells [2] = experiment: Colony formation assay in HGC-27 cells; details: about 2 weeks
Experimental: After about 2 weeks incubation, cell colonies were identified by their being stained with 1% crystal violet dye. And colonies with diameters of >1 mm were counted.

STRN3–MST2 interaction = biological target: T2, STRN3–MST2 interaction (Homo sapiens, UniProt Q13188); experiment: MBP/GST pull-down and Co-IP, STRN3–MST2; format: binding
T2 construct: GST-tagged MST2 (amino acid 1–308), MBP-tagged MST2 (amino acid 1–308); made in house; host or cells: E. coli BL21 Codon plus (DE3)

MST2^Mut (L33/E35/V41A) = biological target: T3, MST2^Mut (L33/E35/V41A) (Homo sapiens, UniProt Q13188, E35A/L33A/V41A); experiment: MST assay, binding to MST2 mutant; details: L33/E35/V41 substituted with alanine
T3 construct: the mutant MBP-tagged MST2 (amino acid 1–308, L33/E35/V41A); MBP; made in house; host or cells: E. coli BL21 Codon plus (DE3)

HGC-27 cells [3] = experiment: Cell viability assay in HGC-27 cells; format: cell-based, human; details: for inhibition of HGC-27 cell growth / viability: result in words
HEK293A cells = experiment: DNA repair after etoposide (residual γ-H2AX immunoblot); format: cell-based; details: 20 μM etoposide 2 h, then with or without compound 6 h
PP2Aa = biological target: T4, PP2Aa (Homo sapiens, UniProt P30153); experiment: MST assay, binding to PP2Aa
T4 construct: GST; made in house; host or cells: E. coli BL21 Codon plus (DE3)

zebrafish larvae = details: ref [65], [66]; cited from earlier work
AGS cells = experiment: Killing efficiency in AGS cells; format: cell-based, human
PP2Aa–STRN3 interaction [4] = biological target: T5, PP2Aa–STRN3 interaction (Homo sapiens, UniProt P30153); experiment: GST pulldown assay, PP2Aa–STRN3; format: binding; design: GST; SUMO; made in house; host or cells: E. coli BL21 Codon plus (DE3); details: recombinant GST-PP2Aa and His-Sumo-STRN3; up to 10 μM compound
Target sequence in this assay (P30153 8-589): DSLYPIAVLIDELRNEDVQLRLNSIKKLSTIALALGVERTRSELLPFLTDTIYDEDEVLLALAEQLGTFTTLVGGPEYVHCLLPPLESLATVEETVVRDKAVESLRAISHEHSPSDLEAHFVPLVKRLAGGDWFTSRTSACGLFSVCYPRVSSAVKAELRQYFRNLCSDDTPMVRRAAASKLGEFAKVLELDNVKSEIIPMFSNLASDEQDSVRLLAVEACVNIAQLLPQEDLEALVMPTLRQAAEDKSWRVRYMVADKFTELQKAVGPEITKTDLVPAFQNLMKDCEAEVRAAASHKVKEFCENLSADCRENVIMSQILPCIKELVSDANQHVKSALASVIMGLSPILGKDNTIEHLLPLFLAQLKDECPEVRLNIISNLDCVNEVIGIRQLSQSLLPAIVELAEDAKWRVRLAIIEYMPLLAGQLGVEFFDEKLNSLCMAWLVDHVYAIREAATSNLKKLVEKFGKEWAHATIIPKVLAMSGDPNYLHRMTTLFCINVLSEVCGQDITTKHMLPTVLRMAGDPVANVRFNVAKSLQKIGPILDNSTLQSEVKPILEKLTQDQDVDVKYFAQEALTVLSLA

[5] = tested on: YAP target gene CTGF in GES-1 cells; experiment: CTGF mRNA (qPCR) in GES-1 cells; details: 48 h
PP2Aa–STRN3 interaction [6] = biological target: T5, PP2Aa–STRN3 interaction; experiment: Co-IP of HA-PP2Aa and Flag-STRN3 in HEK293A cells; format: cell-based; design: expressed in transfected cells; host or cells: HEK293A
Target sequence in this assay (P30153 whole entry): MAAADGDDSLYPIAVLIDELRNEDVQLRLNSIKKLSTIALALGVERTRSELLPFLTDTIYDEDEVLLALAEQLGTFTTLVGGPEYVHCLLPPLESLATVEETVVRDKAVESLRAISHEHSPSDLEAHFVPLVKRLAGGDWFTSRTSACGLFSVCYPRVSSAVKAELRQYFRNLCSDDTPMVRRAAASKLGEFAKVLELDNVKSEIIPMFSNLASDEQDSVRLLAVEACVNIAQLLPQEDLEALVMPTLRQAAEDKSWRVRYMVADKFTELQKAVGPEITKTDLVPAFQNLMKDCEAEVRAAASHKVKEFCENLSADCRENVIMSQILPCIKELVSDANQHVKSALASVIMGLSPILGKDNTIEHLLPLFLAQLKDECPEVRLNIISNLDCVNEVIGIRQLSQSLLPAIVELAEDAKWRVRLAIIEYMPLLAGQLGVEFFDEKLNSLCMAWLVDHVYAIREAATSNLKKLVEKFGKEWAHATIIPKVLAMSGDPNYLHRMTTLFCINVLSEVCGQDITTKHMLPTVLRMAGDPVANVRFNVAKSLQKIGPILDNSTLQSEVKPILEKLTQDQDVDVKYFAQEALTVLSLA

NUGC-4 cells = experiment: NUGC-4 cell viability, XMU-MP-1 with cisplatin; format: cell-based, human
11 different GC cells = experiment: Cisplatin cell viability in 11 GC cell lines; details: read-out: IC50, cisplatin-sensitive GC cell lines; cell lines with higher pMST1/2 such as NUGC-4
AGS cells xenograft = experiment: AGS xenograft tumor model; details: intratumoral injection, five consecutive days, vs control
Experimental: Briefly, healthy male 615 mice were maintained in pathogen-free conditions. Mice were first injected with 2 × 10^6 AGS cells/per mouse into their flanks to induce tumor formation. Once the tumor volume reached about 100 mm^3, mice were injected intratumorally with indicted inhibitors for five successive days. Two weeks later, the mice were euthanized and then their tumors were harvested and weighed.

[7] = biological target: T6, purified MST2 recombinant protein (UniProt Q13188); experiment: MST; Monolith NT.115, 25 °C, fluorescent-labeled protein; STRN3 and MST2 without CX
T6 sequence (Q13188 1-491, species assumed, looked up): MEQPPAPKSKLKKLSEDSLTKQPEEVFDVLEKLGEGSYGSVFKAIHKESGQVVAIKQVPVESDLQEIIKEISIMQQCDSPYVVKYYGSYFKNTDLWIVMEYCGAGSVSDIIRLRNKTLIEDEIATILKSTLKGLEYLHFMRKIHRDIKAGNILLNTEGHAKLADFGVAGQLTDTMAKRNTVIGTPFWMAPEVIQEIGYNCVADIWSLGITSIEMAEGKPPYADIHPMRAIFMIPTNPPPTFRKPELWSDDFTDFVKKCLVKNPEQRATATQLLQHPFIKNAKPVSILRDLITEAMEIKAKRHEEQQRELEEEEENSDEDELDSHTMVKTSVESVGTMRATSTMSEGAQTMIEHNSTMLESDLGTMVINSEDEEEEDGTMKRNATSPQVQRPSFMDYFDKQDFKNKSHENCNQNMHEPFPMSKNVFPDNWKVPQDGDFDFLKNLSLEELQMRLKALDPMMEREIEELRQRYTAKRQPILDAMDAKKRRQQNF

purified PP2Aa (8–589) [8] = biological target: T7, purified PP2Aa (8–589) (UniProt P30153 8-589); experiment: MST; Monolith NT.115, 25 °C, fluorescent-labeled protein; STRN3 to PP2Aa, also with DSF or TH added; details: both partners purified
T7 construct: As used in ITC and MST

purified PP2Aa (8–589) [9] = biological target: T7, purified PP2Aa (8–589); details: both partners purified
[10] = biological target: T8, GST-tagged MST2 (amino acid 1–308) (UniProt Q13188 1-308); details: both partners purified
T8 construct: MST2 kinase, amino acid 1-308; also called GST-MST2; source: E. coli BL21 Coden plus (DE3), purified (GST beads, size-exclusion chromatography)
T8 sequence (looked up): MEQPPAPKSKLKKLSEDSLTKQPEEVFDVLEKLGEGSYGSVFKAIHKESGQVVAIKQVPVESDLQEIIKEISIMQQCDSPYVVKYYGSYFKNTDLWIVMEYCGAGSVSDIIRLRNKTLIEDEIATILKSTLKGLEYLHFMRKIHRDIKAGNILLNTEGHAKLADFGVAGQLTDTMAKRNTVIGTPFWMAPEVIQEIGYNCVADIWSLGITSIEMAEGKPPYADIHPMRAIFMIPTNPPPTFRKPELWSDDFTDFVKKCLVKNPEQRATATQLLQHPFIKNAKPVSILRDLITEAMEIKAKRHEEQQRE

[11] = biological target: T9, MBP-tagged MST2 (amino acid 1–308) (UniProt Q13188 1-308); details: both partners purified
T9 construct: MST2 kinase, amino acid 1-308; also called MBP-MST2; source: E. coli BL21 Coden plus (DE3), purified (MBP beads, size-exclusion chromatography)
T9 sequence (looked up): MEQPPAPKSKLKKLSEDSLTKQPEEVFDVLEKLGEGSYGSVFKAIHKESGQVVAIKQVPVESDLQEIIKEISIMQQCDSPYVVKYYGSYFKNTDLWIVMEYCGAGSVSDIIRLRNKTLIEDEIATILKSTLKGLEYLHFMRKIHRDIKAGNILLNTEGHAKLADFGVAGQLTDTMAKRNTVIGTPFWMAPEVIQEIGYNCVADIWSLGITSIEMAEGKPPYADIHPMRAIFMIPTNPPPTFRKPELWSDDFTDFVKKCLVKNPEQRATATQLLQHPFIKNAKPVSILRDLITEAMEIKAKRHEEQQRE

[12] = Homo sapiens, HGC-27, cell viability, read-out: IC50 values in HGC-27 cells
[13] = cell viability, read-out: IC50 values in HGC-27 cells

T4 sequence (P30153 8-589): as the sequence (P30153 8-589) above
T7 sequence (P30153 8-589): as above
T3 sequence (Q13188 1-308 L33A/E35A/V41A): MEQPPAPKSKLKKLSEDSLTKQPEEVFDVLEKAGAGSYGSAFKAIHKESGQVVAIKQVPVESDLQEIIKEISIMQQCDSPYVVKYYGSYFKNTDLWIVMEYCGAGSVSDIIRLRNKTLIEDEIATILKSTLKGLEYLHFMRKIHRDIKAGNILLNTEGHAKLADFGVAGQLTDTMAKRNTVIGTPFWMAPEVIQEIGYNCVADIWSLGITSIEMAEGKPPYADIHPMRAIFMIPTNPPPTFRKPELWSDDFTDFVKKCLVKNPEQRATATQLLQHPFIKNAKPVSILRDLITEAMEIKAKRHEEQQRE

CN1CCCN(C(=O)c2cccc(-c3ccc(C=C4C(=O)Nc5ccc(Cl)cc54)o3)c2)CC1 [CX, CX-6258]
Kd (MST2): 0.339 µM
effect on STRN3–MST2 binding (MST2; in the presence of compound): could not bind with each other in the presence of CX
sensitization of GC cells to cisplatin (MKN-28 cells; 1 μM CX and 20 μM cisplatin): greatly sensitized GC cells to cisplatin
mRNA levels of YAP target gene CTGF [1]: dose-dependently decreased
colony formation of HGC-27 cells (HGC-27 cells [2]): inhibited
STRN3–MST2 interaction in MBP pull-down (STRN3–MST2 interaction): able to disrupt
binding to MST2^Mut (MST2^Mut (L33/E35/V41A)): failed to bind with CX
inhibition of HGC-27 cell growth / viability (HGC-27 cells [3]): significantly inhibit; also recorded: inhibited the cell viability; also recorded: comparable with DSF
DNA repair (residual γ-H2AX) (HEK293A cells): markedly attenuated the repair

O=c1c2ccccc2[se]n1-c1ccccc1 [Ebselen]
IC50 (HGC-27 cells [3]; [12]): 27.5 µM

Oc1cc2c(cc1O)C1c3ccc(O)c(O)c3OCC1(O)C2 (centres unmarked) [HAEMATOXYLIN]
IC50 (HGC-27 cells [3]; [12]): 37.9 µM

O=C([O-])c1ccccc1-c1c2cc(Br)c(=O)cc-2oc2[c]([Hg+])c([O-])c(Br)cc12.[Na+].[Na+].[OH-] [Merbromin]
IC50 (HGC-27 cells [3]; [13]): 15.2 µM

CC(=O)[O][Hg][c]1ccccc1 [Phenylmercuric acetate]
IC50 (HGC-27 cells [3]; cell viability, listed as phenylmercuric acetate, read-out: IC50 values in HGC-27 cells): < 5 µM
IC50 (HGC-27 cells [3]; [13]): 4.05 µM

Cc1ccc(C(=O)Nc2ccc(S(=O)(=O)[O-])c3cc(S(=O)(=O)[O-])cc(S(=O)(=O)[O-])c23)cc1NC(=O)c1cccc(NC(=O)Nc2cccc(C(=O)Nc3cc(C(=O)Nc4ccc(S(=O)(=O)[O-])c5cc(S(=O)(=O)[O-])cc(S(=O)(=O)[O-])c45)ccc3C)c2)c1.[Na+].[Na+].[Na+].[Na+].[Na+].[Na+] [Suramin Sodium Salt]
STRN3–MST2 interaction in MBP pull-down (STRN3–MST2 interaction): able to disrupt
inhibition of HGC-27 cell growth / viability (HGC-27 cells [3]): not

CN(C)C(=S)SSC(=S)N(C)C [TH, thiram]
Kd (PP2Aa): 1.52 µM
binding affinity to PP2Aa relative to that of STRN3 to PP2Aa (PP2Aa): 14 fold
effect on binding of STRN3 to PP2Aa (PP2Aa; compound added): efficiently disrupt
adverse effects in zebrafish larvae (zebrafish larvae): adverse effects
sensitization of GC cells to cisplatin (AGS cells; 0.1 μM TH and 10 μM cisplatin): significantly sensitized GC cells to cisplatin
colony formation of HGC-27 cells (HGC-27 cells [2]): significantly inhibited colony formation
PP2Aa–STRN3 association in GST pulldown (PP2Aa–STRN3 interaction [4]): efficiently disrupt
IC50 (HGC-27 cells [3]; [12]): 0.4 µM
effect of addition of copper ion on suppression of HGC-27 cell viability by the compound (HGC-27 cells [3]; compound-Cu complex vs compound): markedly enhanced
mRNA levels of YAP target gene CTGF [5]: no significant change
PP2Aa–STRN3 interaction in Co-IP (PP2Aa–STRN3 interaction [6]): further validated by Co-IP assay
DNA repair (residual γ-H2AX) (HEK293A cells): decreased

COc1cc2c(NC3CCN(CC4CCCCC4)CC3)nc(N3CCCN(C(C)C)CC3)nc2cc1OCCCN1CCCCC1 [UNC0631]
IC50 (HGC-27 cells [3]; [13]): < 5 µM and 2.86 µM

COc1ccc(C(=O)O[C@H]2CC[C@@]3(C)[C@@H]4CC[C@H]5[C@]6(O)C[C@H](O)[C@@]7(O)[C@@H](CN8C[C@@H](C)CC[C@H]8[C@@]7(C)O)[C@]6(O)C[C@@]53O[C@]24O)cc1OC [Veratridine]
IC50 (HGC-27 cells [3]; Homo sapiens, HGC-27, read-out: IC50 values in HGC-27 cells): 15.7 µM

CN1C(=O)c2sccc2N(C)c2nc(Nc3ccc(S(N)(=O)=O)cc3)ncc21 [XMU-MP-1]
effect of co-treatment on cisplatin sensitivity (NUGC-4 cells): triggered much more resistance to cisplatin

N.N.[Cl][Pt][Cl] [cisplatin]
IC50 (11 different GC cells): < 20 µM
efficiency in killing cancer cells (AGS cells; 0.05 μM DSF, 20 μM cisplatin, alone or combined): about 20%
efficiency in killing cancer cells (MKN-28 cells; nontoxic concentrations, alone or combined): about 20%
tumor weight / tumor growth (AGS cells xenograft): modestly lower tumor weights

B1: STRN3 (64–145) (domain or fragment, UniProt Q13033 64-145, looked up)
chain: TIPGILHYIQHEWARFEMERAHWEVERAELQARIAFLQGERKGQENLKKDLVRRIKMLEYALKQERAKYHKLKYGTELNQGD
notes: STRN3 (striatin-3), amino acid 64-145
Kd [7]: 0.624 µM
Kd (purified PP2Aa (8–589) [8]): 20.7 µM
Kd (purified PP2Aa (8–589) [9]): 11.9 µM

B2: His-SUMO-tagged STRN3 (amino acid 64–145) (domain or fragment, UniProt Q13033 64-145, looked up)
chain: TIPGILHYIQHEWARFEMERAHWEVERAELQARIAFLQGERKGQENLKKDLVRRIKMLEYALKQERAKYHKLKYGTELNQGD
notes: STRN3 (striatin-3), amino acid 64-145; Used where the tag is named or used for capture: the GST and MBP pull-downs and the nickel chelate acceptor beads of the AlphaScreen; also called HS-STRN3; His-tagged STRN3
binding result [10]: binds
binding result [11]: binds

B3: STRN3: recombinant His-SUMO-tagged STRN3 (amino acid 64–145), binding partner of PP2Aa and MST2 (protein, UniProt Q13033 64-145, looked up, fragment)
chain: TIPGILHYIQHEWARFEMERAHWEVERAELQARIAFLQGERKGQENLKKDLVRRIKMLEYALKQERAKYHKLKYGTELNQGD
modifications: His-SUMO tag
Kd (MST2): 0.624 µM

— publication PMC11126936, “Reactivating Hippo by drug compounds to suppress gastric cancer and enhance chemotherapy sensitivity” (The Journal of Biological Chemistry, 2024)
